Measurements published in patent US10092563B2, “Phosphatidylinositol 3-kinase inhibitors” (Gilead Sciences, Inc., priority 2014, dated 2018).

Key:
Test in all cases: TR-FRET enzymatic assay of PI3K isoforms
Type in all cases: biochemical
PI3Kβ = PI3Kβ (Homo sapiens (Human), UniProt P42338); conditions: for PI3Kγ/PI3Kβ ratio: ratio of IC50 PI3Kγ to IC50 PI3Kβ (fold)
Procedure: (§1) The compounds of formula (I) were characterized for their enzymatic activity against the PI3K isoforms. The activities were measured using a time-resolved fluorescence resonance energy transfer (TR-FRET) assay.

PI3Kγ = PI3Kγ (Homo sapiens (Human), UniProt P48736); conditions: 2× Km ATP, 30 minutes at 25° C.
Procedure: as §1

PI3Kδ = PI3Kδ (Homo sapiens (Human), UniProt O00329); conditions: 2× Km ATP, 30 minutes at 25° C.
Procedure: as §1

Sequence of PI3Kγ (P48736 whole entry): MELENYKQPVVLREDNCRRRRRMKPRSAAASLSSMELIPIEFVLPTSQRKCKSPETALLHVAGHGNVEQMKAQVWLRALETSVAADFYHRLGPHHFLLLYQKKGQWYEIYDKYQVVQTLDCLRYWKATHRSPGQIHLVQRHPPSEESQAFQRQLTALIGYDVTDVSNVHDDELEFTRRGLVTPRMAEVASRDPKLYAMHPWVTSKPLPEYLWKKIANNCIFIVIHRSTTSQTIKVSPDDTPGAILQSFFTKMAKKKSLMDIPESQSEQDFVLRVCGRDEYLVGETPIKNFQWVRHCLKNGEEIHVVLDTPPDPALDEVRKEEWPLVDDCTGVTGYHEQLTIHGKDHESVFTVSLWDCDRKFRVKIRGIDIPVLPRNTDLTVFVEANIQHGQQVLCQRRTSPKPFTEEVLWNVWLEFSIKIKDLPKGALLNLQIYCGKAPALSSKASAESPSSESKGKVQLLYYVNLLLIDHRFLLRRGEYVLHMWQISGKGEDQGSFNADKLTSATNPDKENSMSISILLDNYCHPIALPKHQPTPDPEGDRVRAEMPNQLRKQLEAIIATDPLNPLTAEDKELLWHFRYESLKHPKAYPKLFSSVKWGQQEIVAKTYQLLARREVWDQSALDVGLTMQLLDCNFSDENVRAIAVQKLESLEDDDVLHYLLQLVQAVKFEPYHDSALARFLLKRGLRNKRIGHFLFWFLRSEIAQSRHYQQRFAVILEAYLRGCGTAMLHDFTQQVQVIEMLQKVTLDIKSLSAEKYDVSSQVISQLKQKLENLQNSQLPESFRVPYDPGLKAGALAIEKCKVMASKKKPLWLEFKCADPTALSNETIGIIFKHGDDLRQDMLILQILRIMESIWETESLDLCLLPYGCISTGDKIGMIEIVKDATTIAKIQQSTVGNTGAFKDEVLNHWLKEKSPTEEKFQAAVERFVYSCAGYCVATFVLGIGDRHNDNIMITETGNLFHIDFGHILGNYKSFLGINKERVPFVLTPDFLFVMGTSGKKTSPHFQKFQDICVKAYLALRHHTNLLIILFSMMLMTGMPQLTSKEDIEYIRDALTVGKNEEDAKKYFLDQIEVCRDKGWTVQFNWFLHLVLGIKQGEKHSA
Sequence of PI3Kγ (Q8WYR1 whole entry partner): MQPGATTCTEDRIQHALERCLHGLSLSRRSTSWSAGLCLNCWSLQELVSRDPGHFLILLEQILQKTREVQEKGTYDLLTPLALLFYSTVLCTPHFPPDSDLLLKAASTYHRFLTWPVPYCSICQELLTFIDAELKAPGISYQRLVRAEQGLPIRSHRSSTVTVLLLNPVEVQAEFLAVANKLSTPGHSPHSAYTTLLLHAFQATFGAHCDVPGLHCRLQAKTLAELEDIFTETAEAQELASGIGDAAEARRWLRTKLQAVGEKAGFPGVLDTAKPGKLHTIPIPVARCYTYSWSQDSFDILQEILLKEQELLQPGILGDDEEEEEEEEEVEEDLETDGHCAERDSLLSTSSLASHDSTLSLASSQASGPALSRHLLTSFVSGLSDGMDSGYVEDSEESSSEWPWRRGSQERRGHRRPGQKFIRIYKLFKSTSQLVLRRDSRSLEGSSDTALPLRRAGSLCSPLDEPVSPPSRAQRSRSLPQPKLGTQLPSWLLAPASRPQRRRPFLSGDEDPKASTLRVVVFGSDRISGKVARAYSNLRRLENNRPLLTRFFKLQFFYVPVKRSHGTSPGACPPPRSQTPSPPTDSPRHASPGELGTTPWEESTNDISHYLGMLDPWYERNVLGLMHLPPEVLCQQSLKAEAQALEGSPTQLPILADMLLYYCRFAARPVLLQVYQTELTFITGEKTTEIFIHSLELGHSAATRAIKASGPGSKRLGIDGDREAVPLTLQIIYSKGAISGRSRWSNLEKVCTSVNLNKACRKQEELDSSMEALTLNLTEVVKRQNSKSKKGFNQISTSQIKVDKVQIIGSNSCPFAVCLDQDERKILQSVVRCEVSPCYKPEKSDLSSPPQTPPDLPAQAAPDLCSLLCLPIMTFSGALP
Sequence of PI3Kβ (P42338 whole entry, canonical isoform): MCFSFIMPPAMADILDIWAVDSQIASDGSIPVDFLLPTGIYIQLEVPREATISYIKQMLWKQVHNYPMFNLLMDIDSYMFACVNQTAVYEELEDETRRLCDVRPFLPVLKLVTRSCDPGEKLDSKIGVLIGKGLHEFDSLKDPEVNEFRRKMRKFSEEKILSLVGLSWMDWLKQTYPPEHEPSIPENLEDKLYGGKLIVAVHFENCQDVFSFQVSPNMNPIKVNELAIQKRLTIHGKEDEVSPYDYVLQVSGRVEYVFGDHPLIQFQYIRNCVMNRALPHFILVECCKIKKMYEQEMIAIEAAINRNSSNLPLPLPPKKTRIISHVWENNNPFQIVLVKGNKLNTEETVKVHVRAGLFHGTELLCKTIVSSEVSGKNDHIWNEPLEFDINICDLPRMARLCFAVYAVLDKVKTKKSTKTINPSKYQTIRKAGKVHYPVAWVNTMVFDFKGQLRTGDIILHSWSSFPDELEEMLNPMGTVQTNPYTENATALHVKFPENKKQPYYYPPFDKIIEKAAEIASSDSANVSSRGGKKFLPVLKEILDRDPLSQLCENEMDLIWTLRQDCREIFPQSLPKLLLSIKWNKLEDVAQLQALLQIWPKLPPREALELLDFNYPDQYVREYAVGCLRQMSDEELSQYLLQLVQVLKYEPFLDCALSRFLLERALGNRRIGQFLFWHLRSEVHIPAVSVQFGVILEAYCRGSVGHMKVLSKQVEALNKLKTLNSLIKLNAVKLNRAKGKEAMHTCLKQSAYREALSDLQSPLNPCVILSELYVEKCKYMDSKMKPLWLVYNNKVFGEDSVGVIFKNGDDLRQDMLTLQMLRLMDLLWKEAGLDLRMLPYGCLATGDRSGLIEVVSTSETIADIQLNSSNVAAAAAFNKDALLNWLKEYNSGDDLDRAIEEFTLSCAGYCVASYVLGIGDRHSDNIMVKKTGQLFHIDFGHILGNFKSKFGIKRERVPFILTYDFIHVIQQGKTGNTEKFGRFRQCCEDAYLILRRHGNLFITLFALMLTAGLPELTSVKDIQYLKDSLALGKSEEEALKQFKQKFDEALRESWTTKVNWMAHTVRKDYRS
Sequence of PI3Kβ (P27986 whole entry partner, canonical isoform): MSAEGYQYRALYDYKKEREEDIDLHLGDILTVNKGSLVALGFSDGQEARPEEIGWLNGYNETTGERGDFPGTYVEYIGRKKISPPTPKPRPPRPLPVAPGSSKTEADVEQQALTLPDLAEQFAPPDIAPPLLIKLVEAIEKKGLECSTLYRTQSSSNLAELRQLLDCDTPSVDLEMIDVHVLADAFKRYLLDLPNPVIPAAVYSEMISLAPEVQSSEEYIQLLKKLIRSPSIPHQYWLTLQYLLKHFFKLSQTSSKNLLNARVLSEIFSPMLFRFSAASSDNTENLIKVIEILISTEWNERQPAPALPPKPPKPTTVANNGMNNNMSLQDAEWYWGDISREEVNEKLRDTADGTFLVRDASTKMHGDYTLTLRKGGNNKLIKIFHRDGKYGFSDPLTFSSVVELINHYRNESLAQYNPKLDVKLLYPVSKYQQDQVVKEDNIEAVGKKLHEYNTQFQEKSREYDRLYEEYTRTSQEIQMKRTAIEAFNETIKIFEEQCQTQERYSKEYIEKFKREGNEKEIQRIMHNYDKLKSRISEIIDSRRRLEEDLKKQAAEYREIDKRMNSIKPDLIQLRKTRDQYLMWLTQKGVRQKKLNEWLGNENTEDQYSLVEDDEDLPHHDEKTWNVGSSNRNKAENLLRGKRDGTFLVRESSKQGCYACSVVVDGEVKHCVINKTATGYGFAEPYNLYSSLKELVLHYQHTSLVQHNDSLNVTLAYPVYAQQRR
Sequence of PI3Kδ (O00329 whole entry): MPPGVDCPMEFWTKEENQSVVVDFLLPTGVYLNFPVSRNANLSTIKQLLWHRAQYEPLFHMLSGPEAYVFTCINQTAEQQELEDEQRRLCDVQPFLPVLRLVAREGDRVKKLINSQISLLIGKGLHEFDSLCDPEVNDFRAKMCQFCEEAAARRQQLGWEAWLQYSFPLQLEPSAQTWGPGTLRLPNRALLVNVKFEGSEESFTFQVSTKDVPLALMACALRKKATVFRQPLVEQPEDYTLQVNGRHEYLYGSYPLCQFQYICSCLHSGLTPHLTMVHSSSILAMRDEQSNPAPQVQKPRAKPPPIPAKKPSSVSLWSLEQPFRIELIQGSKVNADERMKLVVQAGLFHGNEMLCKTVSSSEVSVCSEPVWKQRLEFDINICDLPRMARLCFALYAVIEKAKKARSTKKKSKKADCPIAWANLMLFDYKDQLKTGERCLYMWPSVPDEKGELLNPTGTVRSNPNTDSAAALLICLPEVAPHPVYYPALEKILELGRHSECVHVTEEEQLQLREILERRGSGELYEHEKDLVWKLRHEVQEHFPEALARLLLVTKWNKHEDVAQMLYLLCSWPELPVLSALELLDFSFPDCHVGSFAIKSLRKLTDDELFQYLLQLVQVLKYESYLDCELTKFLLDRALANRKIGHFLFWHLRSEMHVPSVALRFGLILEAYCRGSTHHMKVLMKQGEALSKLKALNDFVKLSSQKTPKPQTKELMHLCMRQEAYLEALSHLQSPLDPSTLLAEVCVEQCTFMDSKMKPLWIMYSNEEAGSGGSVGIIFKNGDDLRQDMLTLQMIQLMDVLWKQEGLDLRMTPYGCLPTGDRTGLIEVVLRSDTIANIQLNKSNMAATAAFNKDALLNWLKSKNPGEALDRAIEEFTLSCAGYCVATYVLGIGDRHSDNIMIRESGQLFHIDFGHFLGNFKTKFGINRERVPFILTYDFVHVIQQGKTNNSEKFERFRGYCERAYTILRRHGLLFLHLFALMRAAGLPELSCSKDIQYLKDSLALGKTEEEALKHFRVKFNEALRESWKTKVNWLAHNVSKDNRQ
Sequence of PI3Kδ (P27986 whole entry partner): as the sequence (P27986 whole entry partner, canonical isoform) above

Cc1nc(N)nc(N[C@@H](C)c2nc3c(F)ccc(Cl)c3c(=O)n2C2[C@H]3CNC[C@@H]23)c1C#N (stereo partly drawn) [Compound 16, 4-(((1S)-1-(3-((1R,5S)-3-azabicyclo[3.1.0]hexan-6-yl)-5-chloro-8-fluoro-4-oxo-3,4-dihydroquinazolin-2-yl)ethyl)amino)-2-amino-6-methylpyrimidine-5-carbonitrile]
IC50 (PI3Kβ): 2 nM
IC50 (PI3Kγ): 2600 nM
IC50 (PI3Kδ): 6 nM

C[C@H](Nc1nc(N)nc(N)c1C#N)c1nc2cccc(Cl)c2c(=O)n1[C@@H]1CCCNC1 [Compound 27, 2,4-diamino-6-(((S)-1-(5-chloro-4-oxo-3-((R)-piperidin-3-yl)-3,4-dihydroquinazolin-2-yl)ethyl)amino)pyrimidine-5-carbonitrile]
IC50 (PI3Kγ): > 10000 nM
IC50 (PI3Kδ): 830 nM

C[C@H](Nc1nc(N)nc(N)c1C#N)c1nc2cccc(Cl)c2c(=O)n1-c1ccccc1 [Compound X, (S)-2,4-diamino-6-((1-(5-chloro-4-oxo-3-phenyl-3,4-dihydroquinazolin-2-yl)ethyl)amino)pyrimidine-5-carbonitrile, reference compound]
PI3Kγ/PI3Kβ ratio (PI3Kβ): 0.6
PI3Kγ/PI3Kβ ratio (PI3Kβ; listed as (S)-2,4-diamino-6-(1-(5-chloro-4-oxo-3-phenyl-3,4-dihydroquinazolin-2-yl)ethyl)): less than 1

C[C@H](Nc1nc(N)nc(N)c1C#N)c1nc2c(F)ccc(Cl)c2c(=O)n1C1[C@H]2CNC[C@@H]12 (stereo partly drawn) [Compound 17, 4-(((1S)-1-(3-((1R,5S)-3-azabicyclo[3.1.0]hexan-6-yl)-5-chloro-8-fluoro-4-oxo-3,4-dihydroquinazolin-2-yl)ethyl)amino)-2,6-diaminopyrimidine-5-carbonitrile]
IC50 (PI3Kβ): 3 nM
IC50 (PI3Kγ): 2800 nM
IC50 (PI3Kδ): 4 nM
